Test results published in patent publication US5359138A (Zaidan Hojin Biseibutsu Kagaku Kenkyu KaI, priority 1989, dated 1994).
pIC50: −log10 of the molar value. Entries after “also recorded” stand apart in the source; their conditions may differ. Starred links: 1 amine or outer side, 2 acyl side, 3 side chain; linkers in the order of their positions; H or OH if unused. Non-standard residues stand in square brackets, D forms with d. Residues, ends and D or L forms follow the SMILES beside them. ξ: configuration not given here. *: point of attachment. ξ(3-Amino-2-oxopentanoyl) = CCC(N[*:1])C(=O)C(=O)[*:2]; Abu(ψCOCO) = CC[C@H](N[*:1])C(=O)C(=O)[*:2]; Butanoyl(4-Ph) = O=C(CCCc1ccccc1)*; Cbz = O=C(OCc1ccccc1)*; OBn = c1ccc(CO*)cc1

Assays:
prolylendopeptidase = target: T1, prolylendopeptidase (Sus scrofa, UniProt P23687); assay: Determination of anti-prolylendopeptidase activity; type: biochemical, pig; settings: for PPCE = Propylendopeptidase inhibition activity, IC50: pig kidney enzyme, substrate Z-Gly-Pro-beta-naphthylamide, 37° C., 30 minutes, pH 7.8
T1 construct: a pig kidney sample was subjected to a fractionation operation with ammonium sulfate; from tissue; host or cells: pig kidney
Experimental: The determination of anti-prolylendopeptidase activity was conducted by a modified method based on the method by Yoshimoto et al (Biochim. Biophys. Acta, vol. 569, pages 184-192 (1979)).
A test tube was charged with a solution mixture consisting of (a) 0.2 ml of a solution of 0.5 mM N-benzyloxycarbonyl-L-glycyl-L-prolyl-beta-naphthylamide in 40% dioxane; (b) 0.5 ml of a 0.05M Tris-HCl buffer solution (pH 7.8); and (c) 0.25 ml of an aqueous solution containing the test material. The solution mixture was heated to 37° C. for 3 minutes, and admixed with 0.05 ml of a prolylendopeptidase solution to effect a reaction at 37° C. for 30 minutes. The prolylendopeptidase employed was that which had been obtained according to a modified method based on the enzyme purification method by Koida, Walter et al. (J. Biol. Chem. Vol. 251, pages 7593-7599 (1976), wherein a pig kidney sample was subjected to a fractionation operation with ammonium sulfate, and wherein a purification was effected by a column chromatography employing a DEAE-Sephadex A-50 column.
After the completion of the reaction, the reaction mixture was admixed with 1 ml of a 1M sodium acetate buffer solution containing 10% of Tween-20 and 0.1% of Fast Garnet GBC salt. The reaction mixture was allowed to stand at room temperature for 15 minutes, and then measured for the light absorption at 525 nm (a). At the same time, a control sample, which was free of the test compounds and contained only the buffer solution, was measured for the light absorption (b).
The prolylendopeptidase inhibition activity was determined by employing the formula: […]

cathepsin B = cathepsin B (Homo sapiens, UniProt P07858); assay: Cathepsin B inhibition activity (method by Knight); type: biochemical
Experimental: The elastase inhibition activity was determined according to a method by Mumford, R. A. et al (J. Biol. Chem., 225, 2227 (1980)). The cathepsin B inhibition activity was determined according to a method by Knight, C. G. (Biochem. J., 189, 447-453 (1980)).

mice = assay: Toxicity, LD50 (i.v.) in mice; type: in vivo
Experimental: The compounds according to the invention have a low toxicity. In the case of mice, LD50 (i.v.) of poststatin is at least 200 mg/kg. Therefore, it can be expected that the compounds according to the invention will be useful, for instance, as a drug for treating amnesia and autoimmune diseases including systemic erythematosus and the like.

Solubility of poststatin = type: physicochemical; settings: solvents as named; listed as poststatin

T1 sequence (P23687 whole entry): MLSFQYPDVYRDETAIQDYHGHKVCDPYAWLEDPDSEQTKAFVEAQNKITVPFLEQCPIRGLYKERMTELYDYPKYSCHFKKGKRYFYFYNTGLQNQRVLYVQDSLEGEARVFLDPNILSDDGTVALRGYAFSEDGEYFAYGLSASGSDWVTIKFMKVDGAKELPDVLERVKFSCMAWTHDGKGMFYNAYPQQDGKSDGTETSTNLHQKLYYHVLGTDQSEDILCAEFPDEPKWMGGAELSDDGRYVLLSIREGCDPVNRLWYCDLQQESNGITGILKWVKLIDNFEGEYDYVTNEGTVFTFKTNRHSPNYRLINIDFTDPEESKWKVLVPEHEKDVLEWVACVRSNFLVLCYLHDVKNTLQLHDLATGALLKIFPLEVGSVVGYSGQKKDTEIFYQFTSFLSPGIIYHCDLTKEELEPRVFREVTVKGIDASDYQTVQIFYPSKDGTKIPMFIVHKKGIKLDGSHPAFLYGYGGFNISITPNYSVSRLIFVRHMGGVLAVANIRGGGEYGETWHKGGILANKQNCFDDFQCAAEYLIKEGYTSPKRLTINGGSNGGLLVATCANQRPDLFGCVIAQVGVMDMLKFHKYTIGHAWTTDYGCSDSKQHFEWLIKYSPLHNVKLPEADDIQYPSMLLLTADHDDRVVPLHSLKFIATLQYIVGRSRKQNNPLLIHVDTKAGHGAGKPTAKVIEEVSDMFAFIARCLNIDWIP

Compound | PPCE = Propylendopeptidase inhibition activity, IC50 (prolylendopeptidase) | CatB = Cathepsin B inhibition activity, IC50 (cathepsin B) | pIC50 (prolylendopeptidase) | pIC50 (cathepsin B; read-out: CatB = Cathepsin B inhibition activity, IC50) | LD50 (i.v.) (mice) | Solubility (Solubility of poststatin)
CCC(NC(=O)[C@@H]1CCCN1C(=O)[C@@H](N)C(C)C)C(=O)C(=O)N[C@H](CC(C)C)C(=O)N[C@H](C(=O)O)C(C)C (stereo partly shown) [Compound 6] |  |  | 6.26 | < 3.73 |  | 
CC[C@H](NC(=O)[C@@H](NC(=O)[C@@H](N)C(C)C)C(C)C)C(=O)C(=O)N[C@H](CC(C)C)C(=O)N[C@H](C(=O)O)C(C)C [Compound 1, L-valyl-L-valyl-(3S)-3-amino-2-oxo-pentanoyl-D-leucyl-L-valyl] (H-VV[Abu(ψCOCO)][dL]V-OH) | 0.03 µg/mL | 2.1 µg/mL |  |  | at least 200 mg/kg | soluble in water, methanol, and dimethyl sulfoxide; also recorded: insoluble in acetone, ethyl acetate, chloroform and hexane
CCC(NC(=O)[C@@H](NC(=O)OC(C)(C)C)C(C)C)C(=O)C(=O)N[C@H](CC(C)C)C(=O)OC(C)(C)C (mixture of isomers) [Compound 5, BOC-L-valyl-(RS)-3-amino-2-oxopentanoyl-D-leucyl t-butyl ester] | 0.04 µg/mL | 2.2 µg/mL |  |  |  | 

More lines, main results first:

PPCE = Propylendopeptidase inhibition activity, IC50 (prolylendopeptidase) | CatB = Cathepsin B inhibition activity, IC50 (cathepsin B) | Compound | pIC50 (prolylendopeptidase) | pIC50 (cathepsin B; read-out: CatB = Cathepsin B inhibition activity, IC50) | LD50 (i.v.) (mice) | Solubility (Solubility of poststatin)
0.11 µg/mL | > 100 µg/mL | CCC(NC(=O)[C@H](Cc1ccccc1)NC(=O)OCc1ccccc1)C(=O)C(=O)N[C@H](CC(C)C)C(=O)N[C@H](C(=O)OC(C)(C)C)C(C)C (mixture of isomers) [Compound 3, Z-L-phenylalanyl-(RS)-3-amino-2-oxopentanoyl-D-leucyl-L-valine t-butyl ester] |  |  |  | 
0.17 µg/mL | 72 µg/mL | CCC(NC(=O)[C@@H]1CCCN1C(=O)[C@@H](NC(=O)CCCc1ccccc1)C(C)C)C(=O)C(=O)N[C@H](CC(C)C)C(=O)N[C@H](C(=O)O)C(C)C (stereo partly drawn) [Compound 7, phenylbutanoyl-L-valyl-L-propyl-3-amino-2-oxopentanoyl-D-leucyl-L-valine] ({Butanoyl(4-Ph)}-VP[ξ(3-Amino-2-oxopentanoyl)][dL]V-OH) |  |  |  | 
1 µg/mL | 100 µg/mL | CC[C@H](NC(=O)[C@@H](NC(=O)[C@@H](NC(=O)OCc1ccccc1)C(C)C)C(C)C)C(=O)C(=O)N[C@H](CC(C)C)C(=O)N[C@H](C(=O)OCc1ccccc1)C(C)C [Compound 2, Z-L-valyl-L-valyl-(3S)-3-amino-2-oxo-pentanoyl-D-leucyl-L-valine benzyl ester] (Cbz-VV[Abu(ψCOCO)][dL]V-OBn) |  |  |  | 
0.007 µg/mL | 0.64 µg/mL | CCC(NC(=O)[C@H](Cc1ccccc1)NC(=O)OCc1ccccc1)C(=O)C(=O)N[C@H](CC(C)C)C(=O)N[C@H](C(=O)O)C(C)C (mixture of isomers) [Compound 4, Z-L-phenylalanyl-(RS)-3-amino-2-oxopentanoyl-D-leucyl-L-valine] |  |  |  | 
